# Values joined by “and” are separate entries in the source; they are usually repeats but may differ in a detail not shown here. Identical values can stand only once. “Also recorded” adds a separate entry of the source. Counter-ions that a name gives are not always drawn.
# Tests used:
# [1] = system: M. fortuitum complex isolates ATCC 6841 and 495-JHH; assay: CB-18 titration, BACTEC 12B growth curves; type: cell-based; conditions: M. fortuitum 495-JHH
# [2] = system: M. tuberculosis isolate 571/573-BAL; assay: Detergent screen for induced susceptibility, BACTEC 12B growth curves; type: cell-based, Mycobacterium tuberculosis; conditions: for effect on growth characteristics: 571/573-BAL
# [3] = system: M. tuberculosis complex isolates ATCC 27294 and 571/573-BAL; assay: CB-18 titration, BACTEC 12B growth curves; type: cell-based, Mycobacterium tuberculosis; conditions: for CB-18 concentration at which growth was completely shut down / CB-18 concentration at which growth was impacted to a minor degree: absence of antibiotics
# [4] = system: M. tuberculosis isolates ATCC 27294 and 571/573-BAL; assay: Processing in CB-18 vs. planting in CB-18, BACTEC 12B growth curves
# [5] = system: M. tuberculosis isolates (Table 8); assay: MTB isolates vs. antibiotic screen in the presence and absence of CB-18; conditions: CB-18 17 μg/ml
# [6] = system: M. tuberculosis isolates ATCC 27294 and 571/573-BAL; assay: Mycobacterial susceptibility testing (proportion method criteria) with CB-18 and P-cax; type: cell-based, Mycobacterium tuberculosis
# [7] = system: M. avium complex isolates ATCC 25291 and 802-BAL; assay: CB-18 titration, BACTEC 12B growth curves; type: cell-based; conditions: MAC isolate 802-BAL; CB-18 alone (7–27 μg/ml tested)
# [8] = system: M. tuberculosis isolates ATCC 27294 and 571/573-BAL; assay: CB-18 vs. EDTA, BACTEC 12B growth curves; type: cell-based, Mycobacterium tuberculosis
# [9] = system: M. tuberculosis isolate 571/573-BAL; assay: Planting in lecithin at low inocula, BACTEC 12B growth curves; type: cell-based, Mycobacterium tuberculosis; conditions: CB-18 (17 μg/ml) combined with P/caz; inocula 165±54, 33±11 and 8±3 cfu
# Description: In this experiment the 571/573-BAL isolate was cultivated on 7H11-selective media, serially diluted in NALC/citrate to approximately 1,000×. In an attempt to examine how the inoculum impacted the results of this assay three different stocks were manufactured, one series in buffer and one series in CB-18. […] The planting solutions were manufactured by mixing these three stocks 1:1 with either buffer or a buffered solution of lecithin (Sigma, St. Louis, Mo.; Cat.#: P 5394 (7.5% lecithin was made up as a 100× concentrate in 100% ethanol (3 grams in 40 mls) and diluted in the Tris buffer of Example 1 immediately prior to use)). The final dilutions of three different planting solutions were approximately 5000×, 25,000×, and 100,000×. The final concentration of CB-18 and lecithin in the appropriate planting solutions was approximately 0.5 mM. […] The final concentration of both lecithin and CB-18 during incubation was approximately 17 μg/ml.
# Aliquots of the three stocks (i.e., 2,500×, 12,500× and 50,000×) were also taken for quantitative culture by plating on 7H10 plates (Becton Dickinson, Cockeysville, Md.). […] FIG. 5A presents the 5,000× series planted in either buffer or buffer containing lecithin, and FIG. 5B presents the 5,000× series planted in CB-18 or CB-18 combined with lecithin. FIG. 5C presents the 25,000× series planted in either buffer or buffer containing lecithin, and FIG. 5D presents the 25,000× series planted in CB-18 or CB-18 combined with lecithin. FIG. 5E presents the 100,000× series planted in either buffer or buffer containing lecithin, and FIG. 5F presents the 100,000× series planted in CB-18 or CB-18 combined with lecithin.
# [10] = ATCC 27294, presence of antibiotics
structure (smiles),measurement,setting,value
"CCCCCCCCCCCCCCCCCC[N+](C)(C)CCCC(=O)[O-] [CB-18, N-(3-carboxypropyl)-N,N-dimethyl-1-octadecanaminium, inner salt]",CB-18 concentration at which the isolate was viable / able to grow to some degree,[1]; CB-18 alone,109 µg/mL
same,CB-18 concentration at which growth was affected to some degree,[1]; combined with cefoxitin,13 µg/mL
same,CB-18 concentration at which growth was completely inhibited,[1]; combined with cefoxitin,27 µg/mL
same,effect on growth characteristics,"[2]; CB-18 (17 μg/ml) combined with antibiotics (PANTA, P/cax)",synergistically deleterious
same,effect on growth characteristics,"[2]; CB-18 alone (17 μg/ml, R.F.)",had an impact on the growth characteristics
same,CB-18 effect in the methods of the invention,[2]; carboxybetaines tested,show the CB-18 effect
same,CB-18 concentration at which the isolate was viable,"[3]; 571/573-BAL, CB-18 alone",13 µg/mL
same,CB-18 concentration at which growth was completely shut down,[3]; 571/573-BAL,27 µg/mL
same,CB-18 concentration at which growth was impacted to a minor degree,[3]; 571/573-BAL,13 µg/mL
same,CB-18 concentration at which growth was absent,"[3]; 571/573-BAL, presence of antibiotics",13 µg/mL
same,CB-18 concentration at which growth was completely shut down,[3]; ATCC 27294,54 µg/mL
same,CB-18 concentration at which growth was impacted to a minor degree,[3]; ATCC 27294,27 µg/mL
same,CB-18 concentration at which growth was affected to a minor degree,[3]; [10],13 µg/mL
same,CB-18 concentration at which growth was nonexistent,[3]; [10],27 µg/mL
same,CB-18 concentration causing no alteration in growth,"[3]; ATCC 27294 and 571/573-BAL, absence of antibiotics (FIGS. 10A and 11A)",3 to 7 µg/mL
same,effect on growth characteristics,"[4]; 571/573-BAL, 90 minute exposure to CB-18 at 383 μg/ml, planted in buffer",no apparent effect on growth characteristics
same,CB-18 concentration in the culture bottle at which growth was unimpeded,"[4]; 571/573-BAL, processed in CB-18, then diluted",< 1 µg/mL
same,impact on growth characteristics,"[4]; ATCC 27294, processed in CB-18 (383 μg/ml) and/or planted in CB-18 (17 μg/ml final), PANTA or P/caz",generally unaffected
same,post antibiotic effect,[4]; cells processed in CB-18 but planted in buffer,no post antibiotic effect; also recorded: no “post antibiotic effect”
same,CB-18 induced sensitivity to antibiotics tested,[5]; 040-TBR,affected by CB-18 to some degree; also recorded: Minor CB-18 induced sensitivity to most antibiotics
same,effect of CB-18 on cax sensitivity (degree of exacerbation),"[5]; 040-TBR, P/cax","significantly affected by the presence of CB-18; also recorded: tested, however, cax sensitivity significantly"
same,CB-18 induced sensitivity to antibiotics tested,[5]; 52-96-BOL,affected by CB-18 to some degree; also recorded: Minor CB-18 induced sensitivity to most antibiotics
same,effect of CB-18 on cax sensitivity (degree of exacerbation),"[5]; 52-96-BOL, P/cax","significantly affected by the presence of CB-18; also recorded: tested, however, cax sensitivity significantly"
same,CB-18 induced sensitivity to antibiotics tested,[5]; 57-96-BOL (MDR),exacerbated in the presence of CB-18; also recorded: moderate CB-18 induced sensitivity to most
same,effect of CB-18 on cax sensitivity,"[5]; 061-TBR, P/cax",exacerbated by CB-18. Strain is INH resistant
same,CB-18 induced sensitivity to antibiotics tested,[5]; 512-JHH,Minor CB-18 induced sensitivity to most antibiotics
same,CB-18 induced sensitivity to antibiotics tested,[5]; 535-BAL,unaffected by CB-18 at this concentration
same,effect of CB-18 on cax sensitivity,"[5]; 535-BAL, P/cax",cax sensitivity was independent of CB-18
same,CB-18 induced sensitivity to antibiotics tested,[5]; 538-JHH,Minor CB-18 induced sensitivity to most antibiotics
same,CB-18 induced sensitivity to antibiotics tested,[5]; 571-BAL,remarkable induction of susceptibility for all drugs tested; also recorded: Dramatic CB-18 induced sensitivity
same,CB-18 induced sensitivity to antibiotics tested,[5]; 573-BAL,remarkable induction of susceptibility for all drugs tested; also recorded: Dramatic CB-18 induced sensitivity
same,effect of CB-18 on cax sensitivity,"[5]; 896-BAL, P/cax",slightly exacerbated by CB-18. Strain is multi
same,effect of CB-18 on cax sensitivity,"[5]; ATCC 27294, P/cax (ceftriaxone 8 μg/ml)",minor delays; also recorded: exacerbated by CB-18
same,CB-18 induced sensitivity to antibiotics tested,"[5]; ATCC 27294, PANTA, P/caz, P/cfp, P/cax, P/cft","little or no difference; also recorded: Minimal, if any, CB-18 induced sensitivity to"
same,CB-18 concentration at which the isolate would have been reported as susceptible,"[6]; 571/573-BAL, 10×-dilution (111,000 ± 17,900 cfu), in the presence of P-cax",60 µg/mL and 30 µg/mL
same,CB-18 concentration at which the isolate would have been reported as susceptible,"[6]; 571/573-BAL, 100×-dilution (11,100 ± 1,790 cfu), in the presence of P-cax",15 µg/mL
same,CB-18 concentration at which the isolate would have been reported as susceptible,"[6]; ATCC 27294, 10×-dilution (62,800 ± 5,700 cfu), in the presence of P-cax",60 µg/mL
same,CB-18 concentration at which the isolate would have been deemed susceptible,"[6]; ATCC 27294, 100×-dilution (6,280 ± 570 cfu), in the presence of P-cax",30 µg/mL
same,growth of isolates,"[6]; both isolates, high input (>1×10^5 cfu), 30 μg/ml CB-18",grew unimpeded during the first week
same,CB-18 concentration at which viability falls off,[7],not affected at the test concentrations; also recorded: Viability is unaffected at levels tested
same,effect on growth,"[8]; 571/573-BAL, CB-18 alone 17 μg/ml",suppressed
same,effect on growth,"[8]; ATCC 27294, CB-18 alone 17 μg/ml, absence of MgCl2",unaffected
same,effect on growth,"[8]; ATCC 27294 and 571/573-BAL, CB-18 17 μg/ml with P/cax",synergistically deleterious
same,culture result of replicate bottles,[9],negative
